Measurements as given in patent US20250268903A1, “RXFP1 AGONISTS” (BRISTOL-MYERS SQUIBB COMPANY, priority 2021, published 2025).

Biological target: T1, human RXFP1 (Homo sapiens, UniProt Q9HBX9)
T1 construct: expressed in transfected cells
T1 sequence (Q9HBX9 1-757): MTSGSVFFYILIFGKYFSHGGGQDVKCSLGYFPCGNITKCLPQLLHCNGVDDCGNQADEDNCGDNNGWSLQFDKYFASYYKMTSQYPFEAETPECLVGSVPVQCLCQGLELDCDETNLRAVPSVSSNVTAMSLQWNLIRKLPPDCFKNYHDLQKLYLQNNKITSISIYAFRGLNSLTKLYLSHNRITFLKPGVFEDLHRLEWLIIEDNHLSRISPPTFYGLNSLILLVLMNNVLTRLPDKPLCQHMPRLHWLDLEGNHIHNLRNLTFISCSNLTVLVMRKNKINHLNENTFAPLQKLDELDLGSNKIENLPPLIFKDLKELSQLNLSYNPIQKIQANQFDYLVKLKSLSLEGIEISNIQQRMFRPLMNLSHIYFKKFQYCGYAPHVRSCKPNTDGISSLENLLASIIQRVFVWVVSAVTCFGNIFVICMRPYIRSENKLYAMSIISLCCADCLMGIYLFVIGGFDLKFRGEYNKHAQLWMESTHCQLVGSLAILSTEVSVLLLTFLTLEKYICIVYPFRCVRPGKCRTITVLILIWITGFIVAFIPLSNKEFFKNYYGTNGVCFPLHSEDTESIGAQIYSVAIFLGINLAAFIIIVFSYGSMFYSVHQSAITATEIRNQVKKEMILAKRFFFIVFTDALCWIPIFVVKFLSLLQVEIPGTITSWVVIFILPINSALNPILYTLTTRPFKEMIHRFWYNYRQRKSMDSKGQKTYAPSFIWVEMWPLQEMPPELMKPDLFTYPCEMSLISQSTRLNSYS
Test: hRXFP1 HEK293 cAMP assay (HTRF)
Assay type: cell-based
Settings: HEK293 cells stably expressing human RXFP1, 30 min at room temperature
Protocol: RXFP1 Cyclic Adenosine Monophosphate (cAMP) Assays. […] Cells were dissociated and suspended in assay buffer. The assay buffer was HBSS buffer (with calcium and magnesium) containing 20 mM HEPES, 0.05% BSA, and 0.5 mM IBMX. Cells (3000 cells per well, except 1500 cell per well for HEK293 cells stably expressing human RXFP1) were added to 384-well Proxiplates (Perkin-Elmer). Cells were immediately treated with test compounds in DMSO (2% final) at final concentrations in the range of 0.010 nM to 50 μM. Cells were incubated for 30 min at room temperature. The level of intracellular cAMP was determined using the HTRF HiRange cAMP assay reagent kit (Cisbio) according to manufacturer's instructions. Solutions of cryptate conjugated anti-cAMP and d2 fluorophore-labelled cAMP were made in a supplied lysis buffer separately. Upon completion of the reaction, the cells were lysed with equal volume of the d2-cAMP solution and anti-cAMP solution. […] The potency and activity of a compound to […] cAMP production was then determined by fitting to a 4-parametric logistic equation from a plot of cAMP level versus compound concentrations.

EC50 [nM] | Molecule
264 | COc1ccc(/C=C/C(=O)N[C@H]2C[C@H](O)C2)cc1C(=O)NC1C2CCC(/C2=C/C(F)(F)F)[C@@H]1C(=O)Nc1ccc(F)c(C(F)(F)F)c1 (stereo partly drawn) [Example 131, (2S,3R,7Z)-N-[4-fluoro-3-(trifluoromethyl)phe-nyl]-3-{2-methoxy-5-[(1E)-2-{[(1r,3r)-3-hydroxycyclobutyl]car-bamoyl}eth-1-en-1-yl]benzamido}-7-(2,2,2-trifluoroethylidene)bi-cyclo[2.2.1]heptane-2-carboxamide]
396 | COc1ccc(C2CCC(O)CC2)cc1C(=O)NC1C2CCC(/C2=C/C(F)(F)F)[C@@H]1C(=O)Nc1ccc(F)c(C(F)(F)F)c1 (single isomer, unassigned) [Example 53]
1010 | COc1ccc(C(O)C(F)(F)F)cc1C(=O)NC1C2CCC(/C2=C/C(F)(F)F)[C@@H]1C(=O)Nc1ccc(F)c(C(F)(F)F)c1 (single isomer, unassigned) [Example 5]
88 | COc1ccc(C#C[C@@H](C)O)cc1C(=O)N[C@@H]1C2CCC(/C2=C/C2CC2)[C@@H]1C(=O)Nc1ccc(F)c(C(F)(F)F)c1 (stereo partly drawn) [Example 73, (2S,3R,7Z)-7-(cyclopropylmethyli-dene)-N-[4-fluoro-3-(trifluoromethyl)phe-nyl]-3-{5-[(3R)-3-hydroxybut-1-yn-1-yl]-2-methoxybenzamido} bicyclo[2.2.1]heptane-2-carboxamide]
66 | COc1ccc(C#CCCO)cc1C(=O)N[C@@H]1C2CCC(/C2=C/C(F)(F)F)[C@@H]1C(=O)Nc1ccc(F)c(C(F)(F)F)c1 (stereo partly drawn) [Example 76, (2S,3R,7Z)-N-[4-fluoro-3-(trifluoromethyl)phe-nyl]-3-[5-(4-hydroxybut-1-yn-1-yl)-2-methoxybenzamido]-7-(2,2,2-trifluoroethylidene)bi-cyclo[2.2.1]heptane-2-carboxamide]
494 | COCCCc1ccc(OC)c(C(=O)NC2C3CCC(/C3=C/C(F)(F)F)[C@@H]2C(=O)Nc2ccc(F)c(C(F)(F)F)c2)c1 (stereo partly drawn) [Example 189, (2S,3R,7Z)-N-[4-fluoro-3-(trifluoromethyl)phe-nyl]-3-[2-methoxy-5-(3-methoxypropyl)benz-amido]-7-(2,2,2-trifluoroethylidene)bi-cyclo[2.2.1]heptane-2-carboxamide]
644 | COc1ccc(/C=C/C(=O)NC2CCC2)cc1C(=O)NC1C2CCC(/C2=C/C(F)(F)F)[C@@H]1C(=O)Nc1ccc(F)c(C(F)(F)F)c1 (stereo partly drawn) [Example 135, (2S,3R,7Z)-3-{5-[(1E)-2-(cyclobutylcarbamoyl)eth-1-en-1-yl]-2-methoxybenzamido}-N-[4-fluoro-3-(trifluoromethyl)phe-nyl]-7-(2,2,2-trifluoroethylidene)bi-cyclo[2.2.1]heptane-2-carboxamide]
255 | COc1ccc(CCC(=O)O)cc1C(=O)N[C@@H]1C2CCC(/C2=C/C(F)(F)F)[C@@H]1C(=O)Nc1ccc(F)c(C(F)(F)F)c1 (stereo partly drawn) [Example 9, 3-(3-{[(2R,3S,7Z)-3-{[4-fluoro-3-(trifluoromethyl)phenyl]carbamoyl}-7-(2,2,2-trifluoroethylidene)bicyclo[2.2.1]heptan-2-yl]carbamoyl}-4-methoxyphenyl) propanoic acid]
172 | COc1ccc(CC[C@H](C)O)cc1C(=O)N[C@@H]1C2CCC(/C2=C/C(F)(F)F)[C@@H]1C(=O)Nc1ccc(F)c(C(F)(F)F)c1 (stereo partly drawn) [Example 92, (2S,3R,7Z)-N-[4-fluoro-3-(trifluoromethyl)phe-nyl]-3-{5-[(3S)-3-hydroxybutyl]-2-methoxybenzamido}-7-(2,2,2-trifluoroethylidene)bi-cyclo[2.2.1]heptane-2-carboxamide]
457 | COc1ccc(CCCNC(=O)[C@H](C)O)cc1C(=O)N[C@@H]1C2CCC(/C2=C/C(F)(F)F)[C@@H]1C(=O)Nc1ccc(F)c(C(F)(F)F)c1 (stereo partly drawn) [Example 114]

Further lines, the molecule ahead of its results:

Molecule | EC50 [nM]
COc1ccc(S(=O)(=O)N2CC3COCC3C2)cc1C(=O)NC1C2CCC(/C2=C/C(F)(F)F)[C@@H]1C(=O)Nc1ccc(F)c(C(F)(F)F)c1 (stereo partly drawn) [Example 205, (2S,3R,7Z)-N-[4-fluoro-3-(trifluoromethyl)phe-nyl]-3-(5-{hexahydro-1H-furo[3,4-c]pyrrole-5-sulfonyl}-2-methoxybenzamido)-7-(2,2,2-trifluoroethylidene)bi-cyclo[2.2.1]heptane-2-carboxamide] | 611
COc1ccc(CCCO)cc1C(=O)NC1C2CCC(/C2=C/C2CCCC2)[C@@H]1C(=O)Nc1ccc(F)c(C(F)(F)F)c1 (stereo partly drawn) [Example 167, (7Z)-7-(cyclopentylmethyli-dene)-N-[4-fluoro-3-(trifluoromethyl)phe-nyl]-3-[5-(3-hydroxypropyl)-2-methoxybenzamido] bicyclo[2.2.1]heptane-2-carboxamide] | 11
COc1ccc(COC2(C(=O)O)CC2)cc1C(=O)N[C@@H]1C2CCC(/C2=C/C2CC2)[C@@H]1C(=O)Nc1ccc(F)c(C(F)(F)F)c1 (stereo partly drawn) [Example 18, 1-[(3-{[(2R,3S,7Z)-7-(cyclopropylmethyli-dene)-3-{[4-fluoro-3-(trifluoromethyl)phe-nyl]carbamoyl}bicy-clo[2.2.1]heptan-2-yl]carbamoyl}-4-methoxyphenyl)meth-oxy]cyclopropane-1-carboxylic acid] | 124
COc1ccc(C(=O)N2CCC(O)CC2)cc1C(=O)N[C@H]1[C@@H](C(=O)Nc2ccc(F)c(C(F)(F)F)c2)[C@H]2CC[C@@H]1/C2=C\C1CC1 [Example 230, (1R,2S,3R,4R,7Z)-7-(cyclopropyl-methylidene)-N-[4-fluoro-3-(trifluoromethyl)phenyl]-3-[5-(4-hydroxypiperidine-1-carbonyl)-2-methoxybenzamido] bicyclo[2.2.1] heptane-2-carboxamide] | 26
COc1ccc(CN2C(=O)CN(CCO)C2=O)cc1C(=O)N[C@H]1[C@@H](C(=O)Nc2ccc(F)c(C(F)(F)F)c2)[C@H]2CC[C@@H]1/C2=C\C1CC1 [Example 294, (1R,2S,3R,4R,7Z)-7-(cyclopropyl-methylidene)-N-[4-fluoro-3-(trifluoromethyl)phenyl]-3-(5-{[3-(2-hydroxyethyl)-2,5-dioxoimidazolidin-1-yl]methyl}-2-methoxybenzamido) bicyclo[2.2.1]heptane-2-carboxamide] | 117
2-(3-{[(2R,3S,7Z)- 3-{[4-fluoro-3- (trifluoromethyl)phe- nyl]carbamoyl}-7- (2,2,2- trifluoroethylidene)bi- cyclo[2.2.1]heptan- 2-yl]carbamoyl}-4- methoxyphenyl)ethyl N-phenylcarbamate [Example 56] | 447
COc1ccc(C2CC2C(=O)N2CCC(O)CC2)cc1C(=O)N[C@H]1[C@@H](C(=O)Nc2ccc(F)c(C(F)(F)F)c2)[C@H]2CC[C@@H]1/C2=C\C1CC1 (single isomer, unassigned) [Example 324] | 4.95
COc1ccc(CCC(C)(C)O)cc1C(=O)NC1C2CCC(/C2=C/CC(F)F)[C@@H]1C(=O)Nc1ccc(F)c(C(F)(F)F)c1 (stereo partly drawn) [Example 175, (7Z)-7-(3,3-difluoropropylidene)-N-[4-fluoro-3-(trifluoromethyl)phe-nyl]-3-[5-(3-hydroxy-3-methylbutyl)-2-methoxybenzamido] bicyclo[2.2.1]heptane-2-carboxamide] | 311
COc1cc(CN2C(=O)CNC2=O)ccc1C(=O)N[C@@H]1C2CCC(/C2=C/C2CC2)[C@@H]1C(=O)Nc1ccc(F)c(C(F)(F)F)c1 (stereo partly drawn) [Example 25, (2S,3R,7Z)-7-(cyclopropylmethyli-dene)-3-{4-[(2,5-dioxoimidazolidin-1-yl)methyl]-2-methoxybenzamido}-N-[4-fluoro-3-(trifluoromethyl)phe-nyl]bicyclo[2.2.1] heptane-2-carboxamide] | 2040
COc1ccc(C(=O)N2C[C@H]3CNC[C@H]3C2)cc1C(=O)N[C@H]1[C@@H](C(=O)Nc2ccc(F)c(C(F)(F)F)c2)[C@H]2CC[C@@H]1/C2=C\C1CC1 [Example 249] | 432
COc1ccc(C2CC(CO)C2)cc1C(=O)N[C@H]1[C@@H](C(=O)Nc2ccc(F)c(C(F)(F)F)c2)[C@H]2CC[C@@H]1/C2=C\C1CC1 (stereo partly drawn) [Example 333, (1R,2S,3R,4R,7Z)-7-(cyclopropyl-methylidene)-N-[4-fluoro-3-(trifluoromethyl)phenyl]-3-[5-[3-(hydroxymethyl)cyclobutyl]-2-methoxybenzamido} bicyclo[2.2.1]heptane-2-carboxamide] | 62.3
